Results: patent US9265253B2, “Use of macrocyclic picolinamides as fungicides” (DOW AGROSCIENCES LLC, priority 2013, dated 2016)
Like-named read-outs stand apart in the source and are kept apart here.

Experiments:
[1] = system: Puccinia triticina; Synonym: Puccinia recondite f. Sp. Tritici; assay: Wheat Brown Rust (PUCCRT) disease control; assay type: in vivo; conditions: Puccinia triticina, topical
Protocol: (§1) Technical grades of materials were dissolved in acetone, which were then mixed with nine volumes of water containing 110 ppm Triton X-100. The fungicide solutions were applied onto wheat seedlings using an automated booth sprayer to run-off. All sprayed plants were allowed to air dry prior to further handling. All fungicides were evaluated using the aforementioned method for their activity vs. all target diseases. Wheat leaf blotch and brown rust activity were also evaluated using track spray applications, in which case the fungicides were formulated as EC formulations, containing 0.1% Trycol 5941 in the spray solutions. Wheat plants (variety Yuma) were grown from seed in a greenhouse in 50% mineral soil/50% soil-less Metro mix until the first leaf was fully emerged, with 7-10 seedlings per pot. These plants were inoculated with an aqueous spore suspension of Septoria tritici either prior to or after fungicide treatments. After inoculation the plants were kept in 100% relative humidity (one day in a dark dew chamber followed by two to three days in a lighted dew chamber at 20° C.) to permit spores to germinate and infect the leaf. The plants were then transferred to a greenhouse set at 20° C. for disease to develop. When disease symptoms were fully expressed on the 1st leaves of untreated plants, infection levels were assessed on a scale of 0 to 100 percent disease severity. Percent disease control was calculated using the ratio of disease severity on treated plants relative to untreated plants. Wheat plants (variety Yuma) were grown from seed in a greenhouse in 50% mineral soil/50% soil-less Metro mix until the first leaf was fully emerged, with 7-10 seedlings per pot. These plants were inoculated with an aqueous spore suspension of Puccinia triticina either prior to or after fungicide treatments. After inoculation the plants were kept in a dark dew room at 22° C. with 100% relative humidity overnight to permit spores to germinate and infect the leaf. The plants were then transferred to a greenhouse set at 24° C. for disease to develop. Fungicide formulation, application and disease assessment followed the procedures as described in the Example A.

[2] = system: Mycosphaerella graminicola; Anamorph: Septoria tritici; assay: Leaf Blotch of Wheat (SEPTTR) disease control; assay type: in vivo; conditions: Zymoseptoria tritici
Protocol: as §1, with “plants.” for “plants. Wheat plants (variety Yuma) were grown from seed in a greenhouse in 50% mineral soil/50% soil-less Metro mix until the first leaf was fully emerged, with 7-10 seedlings per pot. These plants were inoculated with an aqueous spore suspension of Puccinia triticina either prior to or after fungicide treatments. After inoculation the plants were kept in a dark dew room at 22° C. with 100% relative humidity overnight to permit spores to germinate and infect the leaf. The plants were then transferred to a greenhouse set at 24° C. for disease to develop. Fungicide formulation, application and disease assessment followed the procedures as described in the Example A.”

[3] = 24 h, 1 Day Protectant, rate 100 ppm, read-out: PUCCRT 1 DP disease control
[4] = 24 h, 1 Day Protectant, rate 121.5 g/H, read-out: PUCCRT 1 DP disease control
[5] = 72 h, 3 Day Curative, rate 100 ppm, read-out: PUCCRT 3 DC disease control
[6] = 72 h, 3 Day Curative, rate 121.5 g/H, read-out: PUCCRT 3 DC disease control
[7] = 24 h, 1 Day Protectant, rate 100 ppm, read-out: SEPTTR 1 DP disease control
[8] = 24 h, 1 Day Protectant, rate 121.5 g/H, read-out: SEPTTR 1 DP disease control
[9] = 72 h, 3 Day Curative, rate 100 ppm, read-out: SEPTTR 3 DC disease control
[10] = 72 h, 3 Day Curative, rate 121.5 g/H, read-out: SEPTTR 3 DC disease control

Structure (SMILES)	pest or weed control at 100 ppm [1, 3]	pest or weed control at 121.5 g/ha [1, 4]	pest or weed control at 100 ppm [1, 5]	pest or weed control at 121.5 g/ha [1, 6]	pest or weed control at 100 ppm [2, 7]	pest or weed control at 121.5 g/ha [2, 8]	pest or weed control at 100 ppm [2, 9]	pest or weed control at 121.5 g/ha [2, 10]	pest or weed control at 100 ppm ([1]; 24 h, Wheat Brown Rust, 1 Day Protectant, rate 100 ppm (high volume application), read-out: Disease control PUCCRT 1 DP)	pest or weed control at 121.5 g/ha ([1]; 24 h, Wheat Brown Rust, 1 Day Protectant, rate 121.5 g/H (low volume application), read-out: Disease control PUCCRT 1 DP)	pest or weed control at 100 ppm ([1]; 72 h, Wheat Brown Rust, 3 Day Curative, rate 100 ppm (high volume application), read-out: Disease control PUCCRT 3 DC)	pest or weed control at 121.5 g/ha ([1]; 72 h, Wheat Brown Rust, 3 Day Curative, rate 121.5 g/H (low volume application), read-out: Disease control PUCCRT 3 DC)	pest or weed control at 100 ppm ([2]; 24 h, Wheat Leaf Blotch, 1 Day Protectant, rate 100 ppm (high volume application), read-out: Disease control SEPTTR 1 DP)	pest or weed control at 121.5 g/ha ([2]; 24 h, Wheat Leaf Blotch, 1 Day Protectant, rate 121.5 g/H (low volume application), read-out: Disease control SEPTTR 1 DP)	pest or weed control at 121.5 g/ha ([2]; 72 h, Wheat Leaf Blotch, 3 Day Curative, rate 121.5 g/H (low volume application), read-out: Disease control SEPTTR 3 DC)
CCOCC(=O)Oc1c(OC)ccnc1C(=O)N[C@H]1CCC[C@H](CCOC)[C@@H](OCC(C)C)[C@H](C)OC1=O [Compound F188]	80 to 100%	80 to 100%	80 to 100%	80 to 100%	80 to 100%	80 to 100%	80 to 100%	80 to 100%	–	–	–	–	–	–	–
COc1ccnc(C(=O)N[C@H]2CCC[C@H](CCOCC3CC3)[C@@H](OCC3CC3)[C@H](C)OC2=O)c1OC(C)=O [Compound F83]	80 to 100%	80 to 100%	80 to 100%	80 to 100%	80 to 100%	0 to 80%	–	0 to 80%	–	–	–	–	–	–	–
CCOCC(=O)OCOc1c(OC)ccnc1C(=O)N[C@H]1CCC[C@H](Cc2ccc(F)cc2)[C@@H](OC(=O)C2CCCC2)[C@H](C)OC1=O [Compound F170]	80 to 100%	80 to 100%	80 to 100%	0 to 80%	80 to 100%	80 to 100%	80 to 100%	80 to 100%	–	–	–	–	–	–	–
COc1ccnc(C(=O)N[C@H]2CCC[C@H](CCC(C)C)[C@@H](Oc3ccccc3)[C@H](C)OC2=O)c1O [Compound F1]	80 to 100%	–	0 to 80%	–	80 to 100%	–	80 to 100%	–	–	–	–	–	–	–	–
COc1ccnc(C(=O)N[C@H]2CCC[C@H](Cc3ccc(F)cc3)[C@@H](Oc3ccccc3)[C@H](C)OC2=O)c1OC(C)=O [Compound F68]	80 to 100%	80 to 100%	80 to 100%	0 to 80%	80 to 100%	80 to 100%	80 to 100%	80 to 100%	–	–	–	–	–	–	–
COc1ccnc(C(=O)N[C@H]2CCC[C@H](Cc3ccc(C)cc3)[C@@H](OCC3CC3)[C@H](C)OC2=O)c1O [Compound F42]	80 to 100%	–	80 to 100%	–	80 to 100%	–	80 to 100%	–	–	–	–	–	–	–	–
CCCO[C@@H]1[C@@H](Cc2ccccc2)CCC[C@H](NC(=O)c2nccc(OC)c2O)C(=O)O[C@H]1C [Compound F21]	80 to 100%	–	80 to 100%	–	0 to 80%	–	0 to 80%	–	–	–	–	–	–	–	–
CCOCC(=O)OCOc1c(OC)ccnc1C(=O)N[C@H]1CCC[C@H](CCOCC2CC2)[C@@H](OCC2CC2)[C@H](C)OC1=O [Compound F191]	–	–	–	–	–	–	–	–	80 to 100%	80 to 100%	80 to 100%	80 to 100%	80 to 100%	0 to 80%	0 to 80%
COc1ccc(C[C@H]2CCC[C@H](NC(=O)c3nccc(OC)c3OCOC(C)=O)C(=O)O[C@@H](C)[C@@H]2OCC2CC2)cc1 [Compound F116]	80 to 100%	80 to 100%	80 to 100%	80 to 100%	80 to 100%	80 to 100%	80 to 100%	80 to 100%	–	–	–	–	–	–	–
COc1ccnc(C(=O)N[C@H]2CCC[C@H](CC(F)F)[C@@H](Oc3ccccc3)[C@H](C)OC2=O)c1O [Compound F53]	80 to 100%	–	80 to 100%	–	80 to 100%	–	0 to 80%	–	–	–	–	–	–	–	–
CCO[C@@H]1[C@@H](Cc2ccccc2)CCC[C@H](NC(=O)c2nccc(OC)c2O)C(=O)O[C@H]1C [Compound F23]	80 to 100%	–	80 to 100%	–	80 to 100%	–	80 to 100%	–	–	–	–	–	–	–	–
COc1ccnc(C(=O)N[C@H]2CCC[C@H](C)[C@@H](OCc3ccccc3)[C@H](C)OC2=O)c1O [Compound F39]	80 to 100%	–	80 to 100%	–	80 to 100%	–	0 to 80%	–	–	–	–	–	–	–	–
CCOCC(=O)Oc1c(OC)ccnc1C(=O)N[C@H]1CCC[C@H](CCF)[C@@H](OCC(C)C)[C@H](C)OC1=O [Compound F184]	80 to 100%	–	80 to 100%	–	80 to 100%	–	80 to 100%	–	–	–	–	–	–	–	–
CC[C@H]1CCC[C@H](NC(=O)c2nccc(OC)c2O)C(=O)O[C@@H](C)[C@@H]1OCC(C)C [Compound F48]	80 to 100%	–	80 to 100%	–	80 to 100%	–	80 to 100%	–	–	–	–	–	–	–	–
C=CCO[C@@H]1[C@@H](Cc2ccc(F)cc2)CCC[C@H](NC(=O)c2nccc(OC)c2OCOC(C)=O)C(=O)O[C@H]1C [Compound F100]	80 to 100%	80 to 100%	80 to 100%	0 to 80%	80 to 100%	80 to 100%	80 to 100%	80 to 100%	–	–	–	–	–	–	–
COc1ccnc(C(=O)N[C@H]2CCC[C@H](CCC(C)C)[C@@H](OC(=O)C3CCCC3)[C@H](C)OC2=O)c1O [Compound F8]	80 to 100%	–	80 to 100%	–	80 to 100%	–	80 to 100%	–	–	–	–	–	–	–	–
COc1ccc(C[C@H]2CCC[C@H](NC(=O)c3nccc(OC)c3O)C(=O)O[C@@H](C)[C@@H]2Oc2ccccc2)cc1 [Compound F26]	80 to 100%	–	0 to 80%	–	80 to 100%	–	80 to 100%	–	–	–	–	–	–	–	–
COc1ccnc(C(=O)N[C@H]2CCC[C@H](CCC(C)C)[C@@H](OC)[C@H](C)OC2=O)c1O [Compound F7]	80 to 100%	–	0 to 80%	–	80 to 100%	–	80 to 100%	–	–	–	–	–	–	–	–
COc1ccnc(C(=O)N[C@H]2CCC[C@H](Cc3ccc(F)cc3F)[C@@H](OCc3ccccc3)[C@H](C)OC2=O)c1OCOC(C)=O [Compound F137]	80 to 100%	80 to 100%	80 to 100%	0 to 80%	80 to 100%	80 to 100%	80 to 100%	80 to 100%	–	–	–	–	–	–	–
